Experimental data: US20170281732A1, “METHODS OF TREATING MILD BRAIN INJURY” (OXEIA BIOPHARMACEUTICALS, INC., priority 2014, published 2017)
pKi: −log10 of the molar value.

Tests used:
[1] = Matsumoto et al., 2001, Biochem. Biophys. Res. Commun. 284:655-659; cited from earlier work
GHS-R = GHS-R (Homo sapiens, UniProt Q92847); assay: GHS-R antagonist activity in a cell based assay (Table 4, Exemplary GHS-R Modulating Compounds)
ischemic brain injury = details: in vivo; cited from earlier work
[2] = test system: rat model of Parkinson's disease; details: cited from earlier work
[3] = test system: oxidative burst in inflammatory cells following mBI; assay: Oxidative burst in brain inflammatory cells following mBI (controlled cortical impact, DHR 123 flow cytometry); format: in vivo, C57/B6 mice; details: subcutaneous ghrelin after mBI, compared to mBI without treatment; mice
Description: Ghrelin variant administration reduces oxidative burst in inflammatory cells following mBI. Since no well-accepted animal model exists for concussions, a very small cerebral lesion that closely mimics mBI is used as a model of mBI. C57/B6 mice anesthetized with 5% isoflurane in oxygen (1.7 L/min) are given 0.3 mg/kg buprenorphine subcutaneously for analgesia prior to infliction of the mild brain injury. Anesthesia is assessed by paw pinch reflex. After creating a burr hole through the dura with a dental drill, a lesion using a controlled cortical impactor (CCI) is used to create injury 1 mm lateral and posterior to the bregma (5.0 mm/sec at a depth of 1.0 mm).
Animals are separated into three treatment groups: 1) Sham, 2) mBI, and 3) mBI plus ghrelin variant. A variety of doses can be tested depending upon the particular ghrelin variant. For example, 1 to 50 μg at one or more time points. As one example, treatment with subcutaneous ghrelin variant: 1 dose of 10 μg following mBI and additional dose 10 μg 1 hour after. Brain tissue is harvested at 2-8 hours, preferably about 6 hours post-injury. […] The fluorescence is then measured (AFU), higher intensity means greater oxidative burst and, therefore greater concentration or amount of ROS. […] Oxidative burst, which is a marker for ROS, can be measured by respiratory burst using flow cytometry (e.g., FL1 channel with 488-nm laser).

GHS-R, sequence (Q92847 whole entry): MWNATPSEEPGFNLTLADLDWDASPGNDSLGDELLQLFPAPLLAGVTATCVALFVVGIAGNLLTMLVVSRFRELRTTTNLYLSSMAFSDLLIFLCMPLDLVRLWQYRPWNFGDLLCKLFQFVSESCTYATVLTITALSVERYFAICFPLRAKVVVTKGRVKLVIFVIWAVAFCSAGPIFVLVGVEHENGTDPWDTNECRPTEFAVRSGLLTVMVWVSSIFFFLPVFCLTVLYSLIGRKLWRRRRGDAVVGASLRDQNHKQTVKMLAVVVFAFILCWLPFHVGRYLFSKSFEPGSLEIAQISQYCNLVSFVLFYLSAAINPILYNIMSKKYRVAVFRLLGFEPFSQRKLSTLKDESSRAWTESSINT

Compound: CCCCCCCCOC[C@H](NC(=O)CCCCN)C(=O)N[C@@H](Cc1ccccc1)C(=O)N[C@@H](CC(C)C)C(=O)NCCN [5-aminopentanoyl-Ser(Octyl)-Phe-Leu-aminoethylamide]
- ghrelin activity [1]: potent ghrelin activity

Compound: CCN(CC)CCCS(=O)(=O)N[C@H](CCc1ccccc1)c1nc(-c2ccc3nccn3c2)n[nH]1 [Compound 134, 3-Diethylamino-propane-1-sulfonic acid {(R)-1-[5-(1H-imidazo[1,2,-a]pyridin-6-yl)-2H-[1,2,4]triazol-3-yl]-3-phenyl-propyl}-amide]
- pKi (GHS-R): 6.30 to 7.00

Compound: C=CC[C@]12CCCN1C(=O)CNC2=O [NNZ-2591, cyclo-L-glycyl-L-2-allylproline]
- neuroprotection after ischemic brain injury (ischemic brain injury): neuroprotective
- motor function [2]: improves motor function

Compound: Ghrelin (GSSFLSPEHQRVQQRKESKKPPAKLQPR)
- Oxidative burst as quantified by Arbitrary Fluorescence Units (AFU) [3]: reduced the oxidative burst compared to mBI
